According to patent US20240390377A1, “COMPOSITION FOR THE PREVENTION OR TREATMENT OF NEURODEGENERATIVE OR MOTOR NEURON DISEASES COMPRISING HALOFUGINONE AS AN ACTIVE INGREDIENT” (CURAMYS CO., LTD., priority 2022, published 2024):

Key:
[1] = test system: G93A mutant SOD1 mouse-derived fibroblasts; assay: Western blot analysis of ALS animal model-derived fibroblasts; format: cell-based; settings: low or high concentration halofuginone for 24 hours; elevation vs Non-TG fibroblasts (FIG. 5b)
From the text: Specifically, primary fibroblasts were isolated from skeletal muscle of 120-day-old non-transformed or G93A mutant SOD1 transgenic mice of Example 4. The excised tissue was placed on 100-mm culture dishes containing HBSS (Hanks' Balanced Salt Solution; Gibco, cat #14175095) and penicillin-streptomycin (Cat #15070-063, Thermo Fisher Scientific) without calcium and magnesium. Muscle tissue was cut on ice blocks. Then, the tissue was cut into 1 mm pieces and enzymatically reacted with 0.2% IV type collagenase (Sigma) at 37° C. for 1 hour. The enzymatic reaction was stopped by the addition of 10 ml of FBS (Gibco). The tissue mixture was centrifuged at 1,800 rpm at 4° C. for 5 min and resuspended with DMEM medium (Welgene) with 10% FBS. Cells were filtered through a 70 μm cell filter (BD Biosciences, San Jose, CA) and incubated in 0.2% gelatin-coated plates with DMEM medium with 10% FBS, 1% penicillin-streptomycin. Then, halofuginone was treated in the same manner as described in Example 1.
Specifically, the lumbar spinal cord or knee joint of the mouse of Example 6 was separated and immediately frozen at −80° C. Each lumbar spinal cord or knee joint was then homogenized and chemically treated to obtain cells. The chemically treated cells, the C2C12 cells of Example 1 or the fibroblasts of Example 5 were dissolved in a RIPA buffer (Thermo, MA, USA) with a protease inhibitor and a phosphatase inhibitor (Roche, IN, USA) and incubated on ice for 30 minutes. After centrifugation of the lysate at 13,000 rpm at 4° C. for 20 min, insoluble substances were removed. Protein concentrations were measured by BCA analysis (Pierce Biotechnology). Equal volumes of cell lysate were loaded onto SDS-PAGE gels for electrophoresis, and transferred onto nitrocellulose membranes (Amersham Protran 0.2 um NC, Amersham Pharmacia Biotech, Piscataway, NJ, USA). The membranes were then blocked with 5% (w/v) skimmilk in 1×TBST for 1 h at room temperature. […] The membranes were then washed, briefly incubated with the SuperSignal West Pico Plus Chemical Substructure (Pierce Biotechnology) according to the manufacturer's procedure, and quantified with an image analyzer (Amersham Pharmacia Biotech, Piscataway, NJ, USA). β-actin was used as an internal control group. The concentration measurement of protein intensity was quantified using Image J (National Institutes of Health). […]

[2] = test system: G93A mutant SOD1 transgenic mice; assay: Range of motion (ROM) of the knee joint in ALS animal model; format: in vivo, mouse; settings: 120 days old; compared to DMSO Non-TG group (DMSO TG significantly reduced)
Procedure: As a control group, non-transgenic mice were injected intraperitoneally (i.p.) with vehicle (DMSO) in the same manner for the same period of time. Specifically, anatomical indicators were used to determine the knee extension angle. Manual knee joint ROM was measured at the end of disease age (120 days) using Random Two-line, a 2D angle analysis system. The mice of Example 6 were anesthetized with 1% isoflurane inhalation, followed by placing them on an acrylic plate and shaving the skin on their hind legs. The femur was fixed to the plate and a constant force extension moment was applied to the knee joint per mouse. Subsequently, markers were attached to greater trochanter, epicondyle of the knee, and lateral malleolus to obtain markers on the imaging. The angle between the axis of the femur (the greater trochanter to the lateral joint space of the knee) and the fibula (the lateral joint space of the knee to the lateral malleolus) was measured as the knee extension ROM. Sixteen mice in each group were analyzed, and the knees of non-transgenic mice injected with DMSO in the group on day 120 were used as controls. Specifically, halofuginone was administered to G93A mutant SOD1 mice in the same manner as described in Example 6, and ROM measurement of the knee joint was performed in the same manner as described in Example 10 (FIG. 8a). […]

Question: For `O=C(C[C@H]1NCCC[C@@H]1O)Cn1cnc2cc(Br)c(Cl)cc2c1=O` (racemic) [halofuginone], which “elevated Col-I protein expression” value [1] is on record?
Answer: attenuated

Question: And the “elevated TGF-β protein expression” value [1]?
Answer: attenuated

Question: What about the “elevated p-Smad2/Smad2 ratio” value [1] of the same molecule?
Answer: attenuated

Question: What about the “elevated α-SMA protein expression” value [1] of the same molecule?
Answer: attenuated

Question: And the “range of motion (ROM) of the knee joint” value [2]?
Answer: not changed
